The results in this text go back to US7365096B2, “Methods for selectively inhibiting Janus tyrosine kinase 3 (Jak3)” (Board of Regents, The University of Texas System, priority 2002, dated 2008).

The test system of one assay is p44/42 Erk1/2. The assay can be described thus: IL-2-mediated p44/42 Erk1/2 phosphorylation in PHA-activated T cells. It is filed as cell-based. The conditions noted are these: human T-cells, 2 hours drug. The protocol:
Solubilization of membrane proteins, immunoprecipitation, and Western blot analysis. Frozen cell pellets were thawed on ice and solubilized in 1% TX-100 lysis buffer (10^8 cells/ml) and clarified by centrifugation, as previously described.^16 For human T-cells, supernates were incubated rotating end over end for 2 hours at 4° C. with either 5 μl/ml polyclonal rabbit antisera raised against peptides derived from the unique COOH-termini of Jak3 (amino acid [a.a.] 1104-1124), carboxyl termini of human Stat5a (a.a. 775-794) or Stat5b (a.a. 777-787).^26 Ab and immunoprecipitated proteins were captured by incubation for 30 minutes with Protein A-Sepharose beads (Pharmacia, Piscataway, N.J.), sedimented for purification, and eluted by boiling in 2×SDS-sample buffer (20% Glycerol, 10% 2-Mercaptoethanol, 4.6% SDS, 0.004% Bromophenol blue in 0.125 M Tris pH 6.8) for 4 minutes. For phosphoMapk assays, approximately 25 μg of total cell lysate was dissociated in SDS-sample buffer and separated on 10% (all others on 7.5%) SDS-PAGE under reducing conditions. […]

Another assay deals with FGFR3 (Homo sapiens, UniProt P22607). The assay can be described thus: Kinase substrate phosphorylation (FIG. 9C). The assay is classed as biochemical. The conditions noted are these: 10 or 50 μM. The procedure:
(§1) Non-Jak3 mediated NfκB activation by TNF-α was not affected within the same treatment set (lower panel). […] Prolactin [PRL] (+) or (−) indicates whether the cells were stimulated with prolactin with Jak2 activation. Phosphotyrosine Western blots detect Jak2-Stat5 activation but no inhibition by 649641P (NC1153). […] 649641P (NC1153) was tested at 10 (open bars) or 50 μM (filled bars) to block growth factor tyrosine kinases (FGFR3 and PDGFRα), Src family tyrosine kinases (Src, Fyn, Lck, Yes, Zap70) or serine threonine kinases (PKC and PKA) phosphorylation of a substrate. The activity of the control is plotted as a dashed line.
(§2) In FIG. 9A, it can be seen that NC1153 inhibits Jak3 driven transcription factor-Stat5a/b in PHA activated T-cells treated with increasing concentrations of NC1153 in a dose dependent manner as measured via EMSA analysis (upper panel). The lane identified as “cold compete” contains unlabeled probe. However, non-Jak3 mediated NfκB activation (lower panel) by TNF-α was not affected within the same treatment set. […] Rat Nb2 cells were treated with increasing concentration of NC1153 and then stimulated with prolactin. Phosphotyrosine Western blots detect activation but no inhibition by NC1153. […] Activity of the control is plotted as a dashed line.

Another assay concerns the target Fyn (Homo sapiens, UniProt P06241). The assay can be described thus: Kinase substrate phosphorylation (FIG. 9C). It is filed as biochemical. The conditions noted are these: 10 or 50 μM. The procedure:
as §1, §2

Another assay concerns the target Lck (Homo sapiens, UniProt P06239). The assay can be described thus: Kinase substrate phosphorylation (FIG. 9C). The assay is classed as biochemical. The conditions noted are these: 10 or 50 μM. The protocol: as §1, §2
The next assay has as its target PDGFRα (Homo sapiens, UniProt P16234). The assay can be described thus: Kinase substrate phosphorylation (FIG. 9C). The assay is classed as biochemical. The conditions noted are these: 10 or 50 μM. The procedure:
as §1, §2

A further assay relates to PKA. The assay can be described thus: Kinase substrate phosphorylation (FIG. 9C). It is filed as biochemical. Conditions: 10 or 50 μM. The procedure: as §1, §2
A further assay concerns PKC. The assay can be described thus: Kinase substrate phosphorylation (FIG. 9C). Conditions: 10 or 50 μM. It is filed as biochemical. The procedure: as §1, §2
The target of another assay is Src (Homo sapiens, UniProt P12931). The assay can be described thus: Kinase substrate phosphorylation (FIG. 9C). It is filed as biochemical. Conditions: 10 or 50 μM. The procedure: as §1, §2
A further assay deals with Yes (Homo sapiens, UniProt P07947). The assay can be described thus: Kinase substrate phosphorylation (FIG. 9C). The assay is classed as biochemical. The conditions noted are these: 10 or 50 μM. The protocol: as §1, §2
The target in the next assay is T1, Zap70 (Homo sapiens, UniProt P43403).
T1 sequence (P43403 1-619): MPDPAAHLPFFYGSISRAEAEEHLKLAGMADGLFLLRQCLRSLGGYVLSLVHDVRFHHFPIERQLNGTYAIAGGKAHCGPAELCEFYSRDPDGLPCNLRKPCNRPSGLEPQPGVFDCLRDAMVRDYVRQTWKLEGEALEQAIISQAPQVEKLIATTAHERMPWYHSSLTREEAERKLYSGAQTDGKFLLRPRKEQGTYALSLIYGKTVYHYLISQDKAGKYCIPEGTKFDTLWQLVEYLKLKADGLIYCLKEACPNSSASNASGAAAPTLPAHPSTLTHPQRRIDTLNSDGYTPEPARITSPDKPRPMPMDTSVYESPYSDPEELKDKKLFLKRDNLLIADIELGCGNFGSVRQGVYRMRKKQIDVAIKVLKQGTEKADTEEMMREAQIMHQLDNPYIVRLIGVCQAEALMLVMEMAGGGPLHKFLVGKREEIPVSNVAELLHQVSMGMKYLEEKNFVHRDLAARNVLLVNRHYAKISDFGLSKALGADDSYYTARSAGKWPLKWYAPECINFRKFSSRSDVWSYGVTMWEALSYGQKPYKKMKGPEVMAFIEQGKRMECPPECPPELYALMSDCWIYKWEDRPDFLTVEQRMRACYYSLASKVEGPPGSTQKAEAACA
The assay can be described thus: Kinase substrate phosphorylation (FIG. 9C). It is filed as biochemical. Conditions: 10 or 50 μM. The protocol:
as §1, §2

“Also recorded” adds a separate entry of the source.

Chain of Src (P12931 whole entry, species assumed): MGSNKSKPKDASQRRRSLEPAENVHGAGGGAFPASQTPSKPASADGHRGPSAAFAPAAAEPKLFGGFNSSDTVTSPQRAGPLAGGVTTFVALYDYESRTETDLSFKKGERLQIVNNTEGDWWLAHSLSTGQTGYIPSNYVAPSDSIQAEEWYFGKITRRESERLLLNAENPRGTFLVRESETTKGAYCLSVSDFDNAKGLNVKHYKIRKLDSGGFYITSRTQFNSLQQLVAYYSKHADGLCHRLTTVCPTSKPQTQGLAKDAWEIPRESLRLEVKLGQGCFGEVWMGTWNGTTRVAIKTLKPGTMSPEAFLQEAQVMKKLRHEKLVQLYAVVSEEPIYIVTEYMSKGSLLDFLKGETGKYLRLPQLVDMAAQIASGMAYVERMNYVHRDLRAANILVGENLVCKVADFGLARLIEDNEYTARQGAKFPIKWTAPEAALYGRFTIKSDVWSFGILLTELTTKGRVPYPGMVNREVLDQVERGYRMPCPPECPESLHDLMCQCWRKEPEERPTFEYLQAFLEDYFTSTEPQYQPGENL
Chain of Fyn (P06241 whole entry, species assumed): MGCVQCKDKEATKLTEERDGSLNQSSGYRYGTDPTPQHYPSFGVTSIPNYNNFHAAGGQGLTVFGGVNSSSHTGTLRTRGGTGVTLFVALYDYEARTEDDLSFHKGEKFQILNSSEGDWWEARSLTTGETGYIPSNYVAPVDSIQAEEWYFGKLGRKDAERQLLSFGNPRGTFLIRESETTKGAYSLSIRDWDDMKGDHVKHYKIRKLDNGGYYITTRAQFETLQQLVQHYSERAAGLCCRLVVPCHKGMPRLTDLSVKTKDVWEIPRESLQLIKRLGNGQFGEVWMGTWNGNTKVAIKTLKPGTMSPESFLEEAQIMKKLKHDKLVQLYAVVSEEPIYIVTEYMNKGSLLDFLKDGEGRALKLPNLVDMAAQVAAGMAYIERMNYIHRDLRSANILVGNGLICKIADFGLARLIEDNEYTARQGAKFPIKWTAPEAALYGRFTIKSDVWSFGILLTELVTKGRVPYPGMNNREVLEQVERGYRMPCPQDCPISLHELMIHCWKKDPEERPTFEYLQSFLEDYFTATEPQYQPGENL
Chain of PDGFRα (P16234 24-1089, species assumed): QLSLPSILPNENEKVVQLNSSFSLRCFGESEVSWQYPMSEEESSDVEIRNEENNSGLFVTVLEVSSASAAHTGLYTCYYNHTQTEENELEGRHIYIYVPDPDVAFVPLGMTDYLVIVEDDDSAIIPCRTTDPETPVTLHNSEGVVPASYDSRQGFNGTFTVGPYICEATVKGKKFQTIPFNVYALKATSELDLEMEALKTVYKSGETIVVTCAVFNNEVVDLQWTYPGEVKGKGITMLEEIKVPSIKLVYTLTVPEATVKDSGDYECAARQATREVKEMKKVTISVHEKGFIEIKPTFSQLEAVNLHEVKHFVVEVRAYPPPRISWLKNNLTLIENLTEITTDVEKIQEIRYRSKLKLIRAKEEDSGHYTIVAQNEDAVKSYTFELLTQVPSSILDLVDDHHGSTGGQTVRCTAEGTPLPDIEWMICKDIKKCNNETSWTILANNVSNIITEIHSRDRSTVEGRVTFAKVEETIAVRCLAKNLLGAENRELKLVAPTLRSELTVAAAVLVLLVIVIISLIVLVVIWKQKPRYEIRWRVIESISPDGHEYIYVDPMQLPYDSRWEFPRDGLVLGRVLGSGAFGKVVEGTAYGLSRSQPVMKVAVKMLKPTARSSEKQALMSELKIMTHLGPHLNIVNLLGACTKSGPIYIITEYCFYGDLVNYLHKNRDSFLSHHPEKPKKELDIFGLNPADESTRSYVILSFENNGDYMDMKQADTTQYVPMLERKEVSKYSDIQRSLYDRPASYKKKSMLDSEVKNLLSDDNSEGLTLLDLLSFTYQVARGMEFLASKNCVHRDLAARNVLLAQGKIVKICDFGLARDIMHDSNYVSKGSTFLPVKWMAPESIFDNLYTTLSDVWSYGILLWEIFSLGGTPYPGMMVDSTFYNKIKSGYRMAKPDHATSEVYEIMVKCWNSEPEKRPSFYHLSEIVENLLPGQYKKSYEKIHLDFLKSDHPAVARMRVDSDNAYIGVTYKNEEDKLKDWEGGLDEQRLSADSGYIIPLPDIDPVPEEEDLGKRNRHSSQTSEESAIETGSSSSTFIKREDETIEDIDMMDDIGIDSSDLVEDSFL
Chain of Yes (P07947 whole entry, species assumed): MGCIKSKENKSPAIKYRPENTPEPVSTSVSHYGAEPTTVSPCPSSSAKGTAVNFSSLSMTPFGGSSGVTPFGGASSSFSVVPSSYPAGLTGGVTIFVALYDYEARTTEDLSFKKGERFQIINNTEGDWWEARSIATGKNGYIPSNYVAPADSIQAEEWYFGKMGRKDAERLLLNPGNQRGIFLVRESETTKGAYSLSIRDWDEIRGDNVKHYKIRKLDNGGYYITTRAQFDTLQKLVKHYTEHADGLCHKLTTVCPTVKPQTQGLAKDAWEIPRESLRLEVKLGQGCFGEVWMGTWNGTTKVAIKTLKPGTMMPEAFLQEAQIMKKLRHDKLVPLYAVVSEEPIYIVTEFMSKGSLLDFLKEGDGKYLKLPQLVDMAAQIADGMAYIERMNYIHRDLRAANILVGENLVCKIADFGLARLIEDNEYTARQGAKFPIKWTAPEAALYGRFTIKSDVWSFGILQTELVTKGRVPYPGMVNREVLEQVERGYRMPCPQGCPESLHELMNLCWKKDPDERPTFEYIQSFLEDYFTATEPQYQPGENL
Chain of Lck (P06239 whole entry, species assumed): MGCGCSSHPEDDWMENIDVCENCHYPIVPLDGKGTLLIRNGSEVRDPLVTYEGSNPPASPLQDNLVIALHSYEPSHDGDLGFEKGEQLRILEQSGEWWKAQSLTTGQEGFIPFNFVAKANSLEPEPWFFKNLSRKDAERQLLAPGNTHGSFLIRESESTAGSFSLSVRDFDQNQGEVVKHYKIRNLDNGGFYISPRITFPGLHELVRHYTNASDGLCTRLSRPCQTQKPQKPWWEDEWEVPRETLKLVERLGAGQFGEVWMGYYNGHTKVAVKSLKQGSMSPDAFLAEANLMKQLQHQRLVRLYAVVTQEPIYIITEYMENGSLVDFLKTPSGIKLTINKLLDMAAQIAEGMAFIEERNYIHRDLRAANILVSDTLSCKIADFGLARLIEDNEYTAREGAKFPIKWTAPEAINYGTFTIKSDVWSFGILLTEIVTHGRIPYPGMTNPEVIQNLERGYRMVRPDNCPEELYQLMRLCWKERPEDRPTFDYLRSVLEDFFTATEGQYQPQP
Chain of FGFR3 (P22607 23-806, species assumed): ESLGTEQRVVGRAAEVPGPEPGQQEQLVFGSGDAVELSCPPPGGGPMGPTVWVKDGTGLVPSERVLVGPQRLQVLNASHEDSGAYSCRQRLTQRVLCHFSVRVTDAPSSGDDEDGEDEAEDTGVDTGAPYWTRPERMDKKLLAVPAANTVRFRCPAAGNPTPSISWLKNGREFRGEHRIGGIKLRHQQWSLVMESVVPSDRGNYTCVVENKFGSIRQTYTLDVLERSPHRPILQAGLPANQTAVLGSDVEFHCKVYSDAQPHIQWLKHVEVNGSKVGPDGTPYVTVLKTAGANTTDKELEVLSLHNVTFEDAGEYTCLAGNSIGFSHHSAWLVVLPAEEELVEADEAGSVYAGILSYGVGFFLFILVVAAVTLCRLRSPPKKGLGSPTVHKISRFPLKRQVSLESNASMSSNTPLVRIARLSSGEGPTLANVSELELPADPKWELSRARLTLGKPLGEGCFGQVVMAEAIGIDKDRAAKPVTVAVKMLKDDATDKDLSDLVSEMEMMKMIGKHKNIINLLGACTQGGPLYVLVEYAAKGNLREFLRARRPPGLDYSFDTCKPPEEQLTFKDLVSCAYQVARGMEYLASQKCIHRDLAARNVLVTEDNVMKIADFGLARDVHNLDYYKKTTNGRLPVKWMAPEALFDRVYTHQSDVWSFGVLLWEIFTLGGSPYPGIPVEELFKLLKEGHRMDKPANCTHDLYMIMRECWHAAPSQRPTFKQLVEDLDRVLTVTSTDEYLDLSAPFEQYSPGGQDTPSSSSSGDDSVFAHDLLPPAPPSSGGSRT

As for `CN(C)CC1CCCCCCCCCC(CN(C)C)C1=O` (mixture of isomers) [649641P (NC1153)], the “IL2-mediated Erk1/2 phosphorylation / activation” value with p44/42 Erk1/2 was “blocks IL2-mediated Erk1/2 activation; also recorded: inhibited tyrosine phosphorylation”. Also, the entries for the “FGFR3 phosphorylation of a substrate” value on FGFR3 and on FGFR3 (listed as NC1153) were “fails to affect the activity” and “fails to affect activity”, respectively. Also, the “Fyn phosphorylation of a substrate” value is listed as “fails to affect the activity” on Fyn and “fails to affect activity” at Fyn (listed as NC1153). In addition, the “Lck phosphorylation of a substrate” value is given as “fails to affect the activity” on Lck and “fails to affect activity” on Lck (listed as NC1153). For the same molecule, the “PDGFRα phosphorylation of a substrate” value is given as “fails to affect the activity” at PDGFRα and “fails to affect activity” on PDGFRα (listed as NC1153). The results for the “PKA phosphorylation of a substrate” value in the assay with PKA and in the assay on PKA (listed as NC1153) were “fails to affect the activity” and “fails to affect activity”, respectively. Also, the figures for the “PKC phosphorylation of a substrate” value in the assay on PKC and in the assay with PKC (listed as NC1153) were “fails to affect the activity” and “fails to affect activity”, respectively. Further, the “Src phosphorylation of a substrate” value on Src was “fails to affect the activity”; on Src (listed as NC1153) it was “fails to affect activity”. Besides, the figures for the “Yes phosphorylation of a substrate” value at Yes and on Yes (listed as NC1153) were “fails to affect the activity” and “fails to affect activity”, respectively. The “Zap70 phosphorylation of a substrate” value at Zap70 is given as “fails to affect the activity”; on Zap70 (listed as NC1153), “fails to affect activity”.
